Test results from US7041446B2, “Labeled protein and its producing method, labeling compound to be used in the method, and method for analyzing function of genes” (priority 1998, dated 2006).

Assays:
[1] = tested on: C-terminal of thioredoxin; test: Labeling of translated protein in cell-free transcription-translation system of E. coli; assay type: biochemical; settings: for linkage to the C-terminal of thioredoxin: cell-free transcription-translation system of E. coli
Description: rCpPur (30 pmol) was phosphorylated by T4 polynucleotide kinase (10 units) in the presence of γ-^33P-ATP (9.25 MBq). The reaction was carried out under the condition of 37° C. for 1 hour. After the reaction was over, the reaction mixture was heated at 70° C. for 20 minutes to inactivate the enzyme.
Labeling reaction was carried out using a cell-free transcription-translation system of E. coli. The reaction mixture (25 μl) of the cell-free transcription-translation system of E. coli had the following composition: 7.5 μl of E. coli S30 extract (containing T7 RNA polymerase), 10 μl of E. coli S30 premix, 2.5 μl of an amino acid mixed solution, 1 μl of an RNase inhibitor, 1 μg of plasmid (thioredoxin), and 0.0003 to 0.3 μM (final concentration) of the ^33P-rCpPur described above. As a control, the reaction was carried out also in a system containing ^35S-methionine (1.2 μM). After the reaction was carried out at 37° C. for 30 minutes, precipitation was performed with acetone. A buffer solution (pH 8) containing 1% SDS was added to the precipitate, and then heated at 90° C. for 5 minutes for dissolution, separated by SDS-15% polyacrylamide gel electrophoresis, and analyzed using an image analyzer (Fuji Photo Film, BAS 2000). […] When the concentration of ^33P-rCpPur was 0.3 μM, a distinct band corresponding to the full-length thioredoxin was detected at the position of apparent molecular weight of 12 kDa. […] The band with an apparent molecular weight of 12 kDa was detected even when labeled with ^35S-methionine (final concentration: 1.2 μM) (FIG. 3).
Fluorescent labeling of a protein by a cell-free transcription-translation system of E. coli in the presence of Fluorpur and Fluorthiopur was examined. […] After the reaction was carried out at 37° C. for 30 minutes, precipitation was performed with acetone. A buffer solution (pH 8) containing 1% SDS was added to the precipitate, then heated at 90° C. for 5 minutes for dissolution, separated by SDS-15% polyacrylamide gel electrophoresis, and detected for fluorescent bands of protein using a fluorescent gel scanner (Fluor Imager 585, Molecular Dynamics). Measurement was made at an excitation wavelength of 488 nm and an emission wavelength of 520 nm. FIGS. 4A, 4B and 4C show the results of fluorescent labeling of thioredoxin with Fluorpur and Fluorthiopur. For both Fluorpur and Fluorthiopur in a concentration ranges of 0.36 to 1.44 μM, fluorescent bands were detected at the position of apparent molecular weight of 12 kDa indicated by an arrow (FIGS. 4A and 4B).

[2] = tested on: protein synthesis of animal cells; settings: cited from earlier work
[3] = tested on: protein synthesis of bacteria; settings: cited from earlier work
[4] = tested on: full-length protein of thioredoxin; test: Labeling of thioredoxin in cell-free transcription-translation system containing wheat germ lysate; assay type: biochemical, E. coli
Description: (§1) The fluorescent labeling of the full-length protein of thioredoxin with Fluorpur and Fluorthiopur was confirmed also in a cell-free transcription-translation system containing nuclease treated rabbit reticulocyte lysate or wheat germ lysate. The respective optimal concentrations of Fluorpur and Fluorthiopur necessary for fluorescent labeling were 0.3 to 50 μM in the system containing nuclease treated rabbit reticulocyte lysate and 10 to 50 μM in the case of the system containing wheat germ lysate.

[5] = tested on: full-length protein of thioredoxin; test: Labeling of thioredoxin in cell-free transcription-translation system containing nuclease treated rabbit reticulocyte lysate; assay type: biochemical, E. coli
Description: as §1

CSCC[C@H](N)C(=O)O [^35S-methionine, reference compound]
band with an apparent molecular weight of 12 kDa ([1]; control label, final concentration 1.2 μM): detected

COc1ccc(C[C@H](N)C(=O)N[C@H]2[C@@H](O)[C@H](n3cnc4c(N(C)C)ncnc43)O[C@@H]2CO)cc1 [puromycin, 3′-[α-amino-p-methoxyhydro-cinnamamido]-3′-deoxy-N,N′-dimethyladenosine]
inhibition of protein synthesis [2]: inhibit the protein synthesis | inhibition of protein synthesis [3]: inhibit the protein synthesis

fluoresceinylphosphopuromycin [Fluorpur]
linkage to the C-terminal of thioredoxin [1]: linked to the C-terminal of the full-length protein | labeling of the full-length protein of thioredoxin [4]: can be confirmed | labeling of the full-length protein of thioredoxin [5]: can be confirmed

fluoresceinylthiophophopuromycin [Fluorthiopur]
linkage to the C-terminal of thioredoxin [1]: linked to the C-terminal of the full-length protein | incorporation compared with Fluorpur ([1]; fluorescent labeling of thioredoxin, E. coli system): more or less efficiently | labeling of the full-length protein of thioredoxin [4]: can be confirmed | labeling of the full-length protein of thioredoxin [5]: can be confirmed
